One assay has as its system OVCAR-8 cells. The experiment in a line: Drug-siRNA combination screen: 346-compound anticancer library at 100 nM, CCK-8 viability.
Details: not given
On to `CCCC(=O)[O-].[Na+]` [Sodium butyrate], for which the “Score (sum of observed SD values for 18 genes)” value is −16.25 SD.
As to `CCOc1cc2ncc(C#N)c(Nc3ccc(OCc4ccccn4)c(Cl)c3)c2cc1NC(=O)/C=C/CN(C)C` [Neratinib], the “Score (sum of observed SD values for 18 genes)” value was −39.86 SD and the “synergy / antagonism of drug with gene knockdowns, in words” value is recorded as “significant synergy with nine or more genes”.
With `Cc1ccc(C(=O)Nc2ccc(CN3CCN(C)CC3)c(C(F)(F)F)c2)cc1C#Cc1cnc2cccnn12` [Ponatinib], the “Score (sum of observed SD values for 18 genes)” value was −28.62 SD.

The assay is the same for the next values; noted with them: OVCAR-8; drug 100 nM plus siRNA knockdown of each of 18 genes; distance VAB−VA×VB in SD; single gene contributes at most +5 / −5; negative = synergy, positive = antagonism.
Take `CC(=O)NCC(=O)N1[C@@H]2CC[C@H]1c1ccc(Nc3ncc(C(F)(F)F)c(NC4CCC4)n3)cc12` [PF-03814735]: the “Score (sum of observed SD values for 18 genes)” value is on record as −30.13 SD.
As for `CCc1c2c(nc3ccc(OC(=O)N4CCC(N5CCCCC5)CC4)cc13)-c1cc3c(c(=O)n1C2)COC(=O)[C@]3(O)CC` [Irinotecan], the “Score (sum of observed SD values for 18 genes)” value is on record as −36.08 SD.
Same read-out and setting: the value for `Cc1ccc(C(=O)N(CCCN)[C@@H](c2nc3cc(Cl)ccc3c(=O)n2Cc2ccccc2)C(C)C)cc1` [Ispinesib] was 1.22 SD; that for `COc1c(C)c2c(c(O)c1C/C=C(\C)CCC(=O)OCCN1CCOCC1)C(=O)OC2` [Mycophenolate mofetil] was −3.2 SD.
The same measure, in the same setting: the same measure for `Cc1cnc(Nc2ccc(OCCN3CCCC3)cc2)nc1Nc1cccc(S(=O)(=O)NC(C)(C)C)c1` [Fedratinib]: 56.68 SD.
Still for that read-out and setting: the value for `Nc1nccc(Oc2ccc(NC(=O)c3c[nH]cc(-c4ccc(F)cc4)c3=O)cc2F)c1Cl` [BMS 794833] was −23.46 SD; that for `CS(=O)(=O)N1CCc2c(-c3cnc(N)nc3)nc(N3CCOCC3)nc21` [CH5132799] was 15.96 SD.
`Cl.Cl.Fc1cc(-c2cccc3ncc(-c4cnn(C5CCNCC5)c4)nc23)cc(F)c1CN1CCOCC1` [NVP-BSK805 2HCI]: the “Score (sum of observed SD values for 18 genes)” value is −43.77 SD.
As to `COc1ccc(-c2ccc3c(N4CCOC[C@@H]4C)nc(N4CCOC[C@@H]4C)nc3n2)cc1CO` [AZD8055], the “Score (sum of observed SD values for 18 genes)” value is on record as -51.01 SD.
The same measure, in the same setting: the value for `Cl.Cl.NC1(c2ccc(-c3nc4ccc5n[nH]c(=O)n5c4cc3-c3ccccc3)cc2)CCC1` [MK-2206 2HCI] was −23.29 SD.
Still for that read-out and setting: the value for `C[C@]12CCC(=O)C(O)=C1CC[C@@H]1[C@@H]2CC[C@]2(C)C(=O)CC[C@@H]12` [Formestane] was −14.97 SD.
Still for that read-out and setting: the same measure for `COc1ccc(-c2ccc3c(N4CCOCC4)nc(N4C[C@@H](C)O[C@@H](C)C4)nc3n2)cc1CO` [Ku-0063794]: −41.94 SD; for `Cc1cc2c(F)c(Oc3ncnn4cc(OC[C@@H](C)O)c(C)c34)ccc2[nH]1` [Brivanib]: −14.38 SD; for `O=C(NOC[C@H](O)CO)c1ccc(F)c(F)c1Nc1ccc(I)cc1F` [PD0325901]: −37.42 SD.
`Cl.O=C(O)Cc1cccc(OCCCN(Cc2cccc(C(F)(F)F)c2Cl)CC(c2ccccc2)c2ccccc2)c1` [GW3965 HCI]: the “Score (sum of observed SD values for 18 genes)” value was −11.35 SD.
Still for that read-out and setting: the same measure for `CCc1ccc(CCOc2ccc(CC3SC(=O)NC3=O)cc2)nc1` (stereo not shown) [Pioglitazone]: −37.6 SD; for `CC(C)c1cc(-c2n[nH]c(=O)n2-c2ccc3c(ccn3C)c2)c(O)cc1O` [Ganetespib]: 8.4 SD; for `Cc1ccc(NC(=O)c2cccc(C(C)(C)C#N)c2)cc1Nc1ccc2ncn(C)c(=O)c2c1` [AZ628]: −43.85 SD.
Regarding `C=CCNC1=C2C[C@@H](C)C[C@H](OC)[C@H](O)[C@@H](C)/C=C(\C)[C@H](OC(N)=O)[C@@H](OC)/C=C\C=C(/C)C(=O)NC(=CC1=O)C2=O` [17-AAG], the “Score (sum of observed SD values for 18 genes)” value is −6.69 SD.
`C=CCc1cccc(/C=N/NC(=O)CN2CCN(Cc3ccccc3)CC2)c1O` [PAC - 1]: the “Score (sum of observed SD values for 18 genes)” value is listed as −13.56 SD.
On the same count and under the same terms, the value for `CN(CCOc1ccc(CC2SC(=O)NC2=O)cc1)c1ccccn1` (stereo not shown) [Rosiglitazone] was −27.32 SD; that for `CC[C@H](Nc1ncnc2[nH]cnc12)c1nc2cccc(F)c2c(=O)n1-c1ccccc1` [CAL-101] was −27.89 SD; that for `CN(NC(=O)CC(=O)NN(C)C(=S)c1ccccc1)C(=S)c1ccccc1` [Elesclomol] was 11.26 SD.
The same measure, in the same setting: the same measure for `CCOc1ccn(-c2ccc(F)cc2)c(=O)c1C(=O)Nc1ccc(Oc2ccnc(N)c2Cl)c(F)c1` [BMS 777607]: −14.73 SD; for `COc1cc(N2CCC(N3CCN(C)CC3)CC2)ccc1Nc1ncc(Cl)c(Nc2ccccc2S(=O)(=O)C(C)C)n1` [TAE684]: −35.61 SD; for `CC(=O)Nc1ccc(OC[C@](C)(O)C(=O)Nc2ccc([N+](=O)[O-])c(C(F)(F)F)c2)cc1` [Andarine]: −7.28 SD.
Still for that read-out and setting: the value for `O=C(CCc1ccc(O)cc1)c1c(O)cc(O)cc1O` [Phloretin] was −16.21 SD; that for `CS(=O)(=O)c1cccc(CNc2nc(Nc3ccc4c(c3)CCC(=O)N4)ncc2C(F)(F)F)c1` [PF 573228] was −28.79 SD.
In the case of `CC(C)n1c(/C=C/C(O)CC(O)CC(=O)O)c(-c2ccc(F)cc2)c2ccccc21` (stereo not shown) [Fluvastatin], the “Score (sum of observed SD values for 18 genes)” value is on record as −20.51 SD.
As to `CCC[C@H](NC(=O)/C(C#N)=C/c1cccc(Br)n1)c1ccccc1` [WP1130], the “Score (sum of observed SD values for 18 genes)” value came out at 3.15 SD.
Turning to `CC1(C)CCC(c2ccc(Cl)cc2)=C(CN2CCN(c3ccc(C(=O)NS(=O)(=O)c4ccc(N[C@H](CCN5CCOCC5)CSc5ccccc5)c(S(=O)(=O)C(F)(F)F)c4)cc3)CC2)C1` [Navitoclax], the “Score (sum of observed SD values for 18 genes)” value is −13.79 SD.
Same read-out and setting: the same measure for `CC(C)CC(=O)Nc1[nH]nc2c1CN(C(=O)C1CCN(C)CC1)C2(C)C` [PHA-793887]: −42.75 SD.
Take `COc1cc(Nc2ncc(F)c(Nc3ccc4c(n3)NC(=O)C(C)(C)O4)n2)cc(OC)c1OC` [R406]: the “Score (sum of observed SD values for 18 genes)” value is −28.54 SD.
Same read-out and setting: the same measure for `O=C(Nc1ccccc1-c1cn2c(CN3CCNCC3)csc2n1)c1cnc2ccccc2n1` [SRT1720]: −34.27 SD; for `Cc1ccc([N+](=O)[O-])cc1S(=O)(=O)N(C)/N=C/c1cnc2ccc(Br)cn12` [PIK-75]: −19.42 SD; for `Cc1[nH]c(/C=C2\C(=O)Nc3ccc(S(=O)(=O)N(C)c4cccc(Cl)c4)cc32)c(C)c1C(=O)N1CCN(C)CC1` [SU11274]: −0.42 SD.
Still for that read-out and setting: the same measure for `CCn1c(=O)c(-c2cc[nH]n2)cc2c(C)nc(N)nc21` [XL765]: −10.06 SD; for `Cc1cccc(-c2[nH]c(C(C)(C)C)nc2-c2ccc3nccnc3c2)n1` [SB 525334]: −32.05 SD; for `Cn1cc(C2=C(c3cn(C4CCN(Cc5ccccn5)CC4)c4ccccc34)C(=O)NC2=O)c2ccccc21` [Enzastaurin]: −6.53 SD.
Same read-out and setting: the value for `S=C(NCc1ccc2c(c1)OCO2)N1CCN(c2ncnc3c2oc2ccccc23)CC1` [Amuvatinib] was 12.37 SD.
For `CCCC(CCC)C(=O)[O-].[Na+]` [Sodium valproate], the “Score (sum of observed SD values for 18 genes)” value was −17.88 SD.
In the case of `O=C(O)CC[C@H]1CC[C@@](c2cc(F)ccc2F)(S(=O)(=O)c2ccc(Cl)cc2)CC1` [MK-0752], the “Score (sum of observed SD values for 18 genes)” value is −34.92 SD.
The same measure, in the same setting: the same measure for `CO[C@@H](C(=O)N1Cc2n[nH]c(NC(=O)c3ccc(N4CCN(C)CC4)cc3)c2C1)c1ccccc1` [Danusertib]: −2.99 SD.
The same measure, in the same setting: the same measure for `O=C(c1cc(Cc2n[nH]c(=O)c3ccccc23)ccc1F)N1CCN(C(=O)C2CC2)CC1` [Olaparib]: −19.18 SD; for `COc1cc2ncnc(Nc3ccc(F)c(Cl)c3)c2cc1NC(=O)/C=C/CN1CCCCC1` [Dacomitinib]: -68.29 SD; for `C[C@]12C=CC(=O)C=C1CC[C@@H]1[C@@H]2C(=O)C[C@@]2(C)[C@H]1CC[C@]2(O)C(=O)CO` [Prednisone]: −20.64 SD.
On the same count and under the same terms, the same measure for `Cc1cc(Nc2cc(N3CCN(C)CC3)nc(/C=C/c3ccccc3)n2)n[nH]1` [ENMD-2076]: −47.04 SD; for `C[C@]12CC[C@@H]3c4ccc(O)cc4CC[C@H]3[C@@H]1CC[C@@H]2O` [Estradiol]: −26.58 SD; for `O=c1[nH]c(=O)n(C2CCCO2)cc1F` (stereo not shown) [Ftorafur]: −9.75 SD.
Turning to `CC(C)c1ccccc1Cc1cc(C(=O)Nc2ccc(S(=O)(=O)c3ccccc3C(C)(C)C)cc2)c(O)c(O)c1O` [TW-37], the “Score (sum of observed SD values for 18 genes)” value is given as −36.72 SD.
On the same count and under the same terms, the same measure for `CNC(=O)c1ccc(C)c(-n2c(C)cc(OCc3ccc(F)cc3F)c(Br)c2=O)c1` [PH-797804]: -64.86 SD; for `Cn1cnc2c(F)c(Nc3ccc(Br)cc3Cl)c(C(=O)NOCCO)cc21` [Selumetinib]: -63.99 SD.
The same measure, in the same setting: the value for `COc1ccccc1OCC(O)CN1CCN(CC(=O)Nc2c(C)cccc2C)CC1` (stereo not shown) [Ranolazine] was −11.08 SD.

Still in this assay, the particulars now being: OVCAR-8; drug 100 nM; panel of 18 siRNA knockdowns.
With `CC(=O)NCC(=O)N1[C@@H]2CC[C@H]1c1ccc(Nc3ncc(C(F)(F)F)c(NC4CCC4)n3)cc12` [PF-03814735], the “synergy / antagonism of drug with gene knockdowns, in words” value was “significant synergy”.
On the same count and under the same terms, the value for `Cc1ccc(NC(=O)c2cccc(C(C)(C)C#N)c2)cc1Nc1ccc2ncn(C)c(=O)c2c1` [AZ628] was “synergistic with knockdown of ten genes”.
The same measure, in the same setting: the value for `CC(C)CC(=O)Nc1[nH]nc2c1CN(C(=O)C1CCN(C)CC1)C2(C)C` [PHA-793887] was “strong synergies with multiple genes”; that for `Cc1cc(Nc2cc(N3CCN(C)CC3)nc(/C=C/c3ccccc3)n2)n[nH]1` [ENMD-2076] was “significant synergy”.

Staying with this assay, now noted: OVCAR-8; drug 100 nM; siRNA knockdown.
Take `COc1cc2ncnc(Nc3ccc(F)c(Cl)c3)c2cc1NC(=O)/C=C/CN1CCCCC1` [Dacomitinib]: the “number of genes (of 18) with high synergy with the drug” value was determined as 15 genes.
For `CNC(=O)c1ccc(C)c(-n2c(C)cc(OCc3ccc(F)cc3F)c(Br)c2=O)c1` [PH-797804], the “number of genes (of 18) whose knockdown synergizes with the drug” value worked out at 14 genes.
Same read-out and setting: the value for `Cn1cnc2c(F)c(Nc3ccc(Br)cc3Cl)c(C(=O)NOCCO)cc21` [Selumetinib] was 16 genes.
